Biological target: T1, KRAS G12C 1-169, his-tagged protein, GDP-loaded (Homo sapiens, UniProt P01116, G12C)
T1 construct: KRAS G12C 1-169, his-tagged protein, GDP-loaded
Experiment: Biochemical assay: covalent binding (modification %) to KRAS G12C by mass spectrometry
Details: 2 hour incubation period, 8 μM compound (compounds 21-92)
Experimental: Test compounds were prepared as 10 mM stock solutions in DMSO (Fisher cat# BP-231-100). KRAS G12C 1-169, his-tagged protein, GDP-loaded was diluted to 2 μM or 0.5 μM in buffer (20 mM Hepes, 150 mM NaCl, 1 mM MgCl2). Compounds were tested for activity as follows:
Compounds were diluted to 50× final test concentration in DMSO in 96-well storage plates. Compound stock solutions were vortexed before use and observed carefully for any sign of precipitation. Dilutions were as follow: • For 100 μM final compound concentration, compounds were diluted to 5000 μM (5 μL 10 mM compound stock+5 μL DMSO and mixed well by pipetting. • For 30 μM final compound concentration, compounds were diluted to 1500 μM (3 μL 10 mM compound stock+17 μL DMSO) and mixed well by pipetting. • For 10 μM final compound concentration, compounds were diluted to 500 μM (2 μL 10 mM compound stock+38 μL DMSO) and mixed well by pipetting. 49 μL of the stock protein solution was added to each well of a 96-well PCR plate (Fisher cat#1423027). 1 μl of the diluted 50× compounds were added to appropriate wells in the PCR plate using 12-channel pipettor. Reactions were mixed carefully and thoroughly by pipetting up/down with a 200 μL multi-channel pipettor. The plate was sealed well with aluminum plate seal, and stored in drawer at room temperature for 10 minutes, 30 minutes, 2 hours or 24 hours. 5 μL of 2% formic acid (Fisher cat# A117) in de-ionized H2O was then added to each well followed by mixing with a pipette. The plate was then resealed with aluminum seal and stored on dry ice until analyzed as described below.
The above described assays were analyzed by mass spectrometry according to one of the following two procedures:
The MS instrument is set to positive polarity, 2 GHz resolution, and low mass (1700) mode and allowed to equilibrate for 30 minutes. The instrument is then calibrated, switched to acquisition mode and the appropriate method loaded.
After another 30 minute equilibration time, a blank batch (i.e., buffer) is run to ensure equipment is operating properly. The samples are thawed at 37° C. for 10 minutes, briefly centrifuged, and transfer to the bench top. Wells A1 and H12 are spiked with 1 μL 500 μM internal standard peptide, and the plates centrifuged at 2000×g for 5 minutes. The method is then run and masses of each individual well recorded.
The masses (for which integration data is desired) for each well are pasted into the platemap and exported from the analysis. Masses for the internal standards are exported as well. The data at 50 ppm is extracted for the +19 charge state, and identity of well A1 is assigned using the internal standard spike and integrated. Peak data is exported as a TOF list and the above steps are repeated individually, for the +20, 21, 22, 23, 24, and 25 charge states.
The masses and peak intensities of KRAS G12C protein species were measured using a Dionex RSLCnano system (Thermo Scientific) connected to a Q Exactive Plus mass spectrometer (Thermo Scientific).
[…] of sample was each loaded onto a Aeris™ 3.6 μm WIDEPORE C4 200 Å, LC Column 50×2.1 mm column maintained at 40° C. at a flow rate of 600 μL/min with 20% Solvent A (0.1% formic acid in H2O) and 80% Solvent B (0.1% formic acid in acetonitrile). The liquid chromatography conditions were 20% solvent B for 1 minute, 20% to 60% solvent B for 1.5 minutes, 60% to 90% solvent for 0.5 minute, 90% solvent B for 0.2 minute, 90% to 20% solvent B for 0.2 minute, and then equilibrated for 1.6 minute before the following sample injection. The flow rate was maintained at 600 μL/min throughout the sample analysis.
The mass spectrometer was operated in profile mode at a resolution of 17500, 5 microscans, using 50 msec max injection time and an AGC target of 1×10^6, and a full mass range from 800-1850 m/z was recorded. The HCD trapping gas was optimized for maximum sensitivity for intact proteins. […]

SMILES	Binding %
C=CC(=O)N1CC(N2Cc3ccc(-c4cccc5cn[nH]c45)cc3C2=O)C1 [Compound 53, 2-(1-acryloylazetidin-3-yl)-6-(1H-indazol-7-yl)isoindolin-1-one]	+ (+ indicates binding activity up to 10%)
C=CC(=O)N1CC(N2Cc3ccc(-c4cccc(O)n4)cc3C2=O)C1 [Compound 54, 2-(1-acryloylazetidin-3-yl)-6-(6-hydroxypyridin-2-yl)isoindolin-1-one]	+ (+ indicates binding activity up to 10%)
C=CC(=O)N1CC(N2Cc3ccc(-c4cccc(C#N)c4)cc3C2=O)C1 [Compound 55, 3-(2-(1-acryloylazetidin-3-yl)-3-oxoisoindolin-5-yl)benzonitrile]	+ (+ indicates binding activity up to 10%)
C=CC(=O)N1CC(N2Cc3ccc(-c4c(C)ccc5[nH]ncc45)cc3C2)C1 [Compound 56, 1-(3-(5-(5-methyl-1H-indazol-4-yl)isoindolin-2-yl)azetidin-1-yl)prop-2-en-1-one]	+ (+ indicates binding activity up to 10%)
C=CC(=O)N1CC(N2Cc3ccc(N4CCc5ccccc54)cc3C2=O)C1 [Compound 57, 2-(1-acryloylazetidin-3-yl)-6-(indolin-1-yl)isoindolin-1-one]	+ (+ indicates binding activity up to 10%)
C=CC(=O)N1CC(N2Cc3ccc(-c4cccc(NC)c4)cc3C2=O)C1 [Compound 58, 2-(1-acryloylazetidin-3-yl)-6-(3-(methylamino)phenyl)isoindolin-1-one]	+ (+ indicates binding activity up to 10%)
C=CC(=O)N1CC(N2Cc3ccc(N4CCC(O)C4)cc3C2=O)C1 (stereo not drawn) [Compound 59, 2-(1-acryloylazetidin-3-yl)-6-(3-hydroxypyrrolidin-1-yl)isoindolin-1-one]	+ (+ indicates binding activity up to 10%)
C=CC(=O)N1CC(N2Cc3ccc(-c4ccccc4NC)cc3C2=O)C1 [Compound 60, 2-(1-acryloylazetidin-3-yl)-6-(2-(methylamino)phenyl)isoindolin-1-one]	+ (+ indicates binding activity up to 10%)
C=CC(=O)N1CC(N2Cc3ccc(-c4ccccc4C#N)cc3C2=O)C1 [Compound 61, 2-(2-(1-acryloylazetidin-3-yl)-3-oxoisoindolin-5-yl)benzonitrile]	+ (+ indicates binding activity up to 10%)
C=CC(=O)N1CC(N2Cc3ccc(N4CCC(N(C)C)C4)cc3C2=O)C1 (stereo not drawn) [Compound 62, 2-(1-acryloylazetidin-3-yl)-6-(3-(dimethylamino)pyrrolidin-1-yl)isoindolin-1-one]	+ (+ indicates binding activity up to 10%)
C=CC(=O)N1CC(N2Cc3cc(C(N)=O)c(-c4cc(O)cc5ccccc45)cc3C2=O)C1 [Compound 63, 2-(1-acryloylazetidin-3-yl)-6-(3-hydroxynaphthalen-1-yl)-1-oxoisoindoline-5-carboxamide]	++ (++ indicates binding activity from 10 to 50%)
C=CC(=O)N1CC(N2Cc3cc(C#N)c(-c4cc(O)cc5ccccc45)cc3C2=O)C1 [Compound 64, 2-(1-acryloylazetidin-3-yl)-6-(3-hydroxynaphthalen-1-yl)-1-oxoisoindoline-5-carbonitrile]	+++ (+++ indicates binding activity greater than 50%)
C=CC(=O)N1CC(N2Cc3ccc(-c4c(C)ccc5[nH]nc(N)c45)cc3C2=O)C1 [Compound 65, 2-(1-acryloylazetidin-3-yl)-6-(3-amino-5-methyl-1H-indazol-4-yl)isoindolin-1-one]	+++ (+++ indicates binding activity greater than 50%)
C=CC(=O)N1CC(N2Cc3ccc(-c4cn[nH]c4)cc3C2=O)C1 [Compound 66, 2-(1-acryloylazetidin-3-yl)-6-(1H-pyrazol-4-yl)isoindolin-1-one]	+ (+ indicates binding activity up to 10%)
C=CC(=O)N1CC(N2Cc3ccc(-c4cc(O)cc5ccccc45)c(F)c3C2=O)C1 [Compound 67, 2-(1-acryloylazetidin-3-yl)-7-fluoro-6-(3-hydroxynaphthalen-1-yl)isoindolin-1-one]	+++ (+++ indicates binding activity greater than 50%)
C=CC(=O)N1CC(N2Cc3ccc(-c4cccnc4O)cc3C2=O)C1 [Compound 68, 2-(1-acryloylazetidin-3-yl)-6-(2-hydroxypyridin-3-yl)isoindolin-1-one]	+ (+ indicates binding activity up to 10%)
C=CC(=O)N1CC(N2Cc3ccc(-c4c(C)ccc5[nH]ncc45)c(F)c3C2=O)C1 [Compound 69, 2-(1-acryloylazetidin-3-yl)-7-fluoro-6-(5-methyl-1H-indazol-4-yl)isoindolin-1-one]	++ (++ indicates binding activity from 10 to 50%)
C=CC(=O)N1CC(N2Cc3cc(Cl)c(-c4cc(O)cc5ccccc45)cc3C2=O)C1 [Compound 70, 2-(1-acryloylazetidin-3-yl)-5-chloro-6-(3-hydroxynaphthalen-1-yl)isoindolin-1-one]	+++ (+++ indicates binding activity greater than 50%)
C=CC(=O)N1CC(N2Cc3ccc(NC4CCCN(C(C)=O)C4)cc3C2=O)C1 (stereo not drawn) [Compound 71, 6-((1-acetylpiperidin-3-yl)amino)-2-(1-acryloylazetidin-3-yl)isoindolin-1-one]	+ (+ indicates binding activity up to 10%)
C=CC(=O)N1CC(N2Cc3ccc(N4CCCC(O)C4)cc3C2=O)C1 (stereo not drawn) [Compound 72, 2-(1-acryloylazetidin-3-yl)-6-(3-hydroxypiperidin-1-yl)isoindolin-1-one]	+ (+ indicates binding activity up to 10%)
C=CC(=O)N1CC(N2Cc3ccc(-c4c(O)ccc5ccccc45)cc3C2=O)C1 [Compound 73, 2-(1-acryloylazetidin-3-yl)-6-(2-hydroxynaphthalen-1-yl)isoindolin-1-one]	++ (++ indicates binding activity from 10 to 50%)
C=CC(=O)N1CC(N2Cc3cc(Cl)c(-c4c(C)ccc5[nH]ncc45)cc3C2=O)C1 [Compound 74, 2-(1-acryloylazetidin-3-yl)-5-chloro-6-(5-methyl-1H-indazol-4-yl)isoindolin-1-one]	++ (++ indicates binding activity from 10 to 50%)
C=CC(=O)N1CC(N2Cc3ccc(NC4CCN(C(C)=O)C4)cc3C2=O)C1 (stereo not drawn) [Compound 75, 6-((1-acetylpyrrolidin-3-yl)amino)-2-(1-acryloylazetidin-3-yl)isoindolin-1-one]	+ (+ indicates binding activity up to 10%)
C=CC(=O)N1CC(N2Cc3ccc(C(=O)N4CCC(N(C)C)C4)cc3C2=O)C1 (stereo not drawn) [Compound 76, 2-(1-acryloylazetidin-3-yl)-6-(3-(dimethylamino)pyrrolidine-1-carbonyl)isoindolin-1-one]	+ (+ indicates binding activity up to 10%)
C=CC(=O)N1CC(N2Cc3c(C(N)=O)cc(-c4c(C)ccc5[nH]ncc45)cc3C2=O)C1 [Compound 77, 2-(1-acryloylazetidin-3-yl)-6-(5-methyl-1H-indazol-4-yl)-1-oxoisoindoline-4-carboxamide]	+ (+ indicates binding activity up to 10%)
C=CC(=O)N1CC(N2Cc3ccc(N4CCCC(N(C)C)C4)cc3C2=O)C1 (stereo not drawn) [Compound 78, 2-(1-acryloylazetidin-3-yl)-6-(3-(dimethylamino)piperidin-1-yl)isoindolin-1-one]	+ (+ indicates binding activity up to 10%)
C=CC(=O)N1CC(N2Cc3ccc(C(=O)N4CCC(N)C4)cc3C2=O)C1 (stereo not drawn) [Compound 79, 2-(1-acryloylazetidin-3-yl)-6-(3-aminopyrrolidine-1-carbonyl)isoindolin-1-one]	+ (+ indicates binding activity up to 10%)

From US10377743B2, “Inhibitors of RAS and methods of use thereof” (Araxes Pharma LLC, priority 2016, dated 2019)
